Test results from US8192962B2, “Processes for detecting toxic substances” (Daikin Industries, Ltd., priority 2001, dated 2012).

Tested on: Metabolism protein genes
Assay: DNA chip mRNA expression in yeast, metabolism protein genes (Table 7)
Format: cell-based, Saccharomyces cerevisiae S288C
Protocol: Yeast (Saccharomyces cerevisiae S288C (α SUC2mal mel gap2 CUP1)) were incubated at 25° C. on YPD medium (yeast extract 1%, polypepton 2%, glucose 2%). One of toxic chemical substances was added to the cells at logarithmic growth phase, and the cells were further incubated for two hours. Cells were cultured without any chemical substance in the same condition, and were used as control. Concentrations of the chemical substances were defined to inhibit the growth of the yeast but not lead to death.
After completion of the incubation, the culture was centrifuged to collect the cells. To the cells, sodium acetate buffer (50 mM sodium acetate, 10 mM EDTA, 1% SDS) was added, and the mixture was shaken at 65° C. for five minutes, followed by returning to room temperature, and obtaining the supernatant, of which the procedures were repeated two times. To the supernatant, ½ amount of a solution of phenol/chloroform was added, and the mixture was centrifuged to give a supernatant, which was added with an equal amount of chloroform, and the mixture was centrifuged to give a supernatant. To the supernatant, an equal amount of isopropanol containing 0.3 M sodium acetate was added, and the mixture was allowed to stand at room temperature for 30 minutes, after which the mixture was centrifuged to give a sediment of the whole RNAs. Seventy % ethanol was added to the sediment, and the mixture was again centrifuged to give a sediment, which was then dried and dissolved in water. mRNA was isolated from the whole RNAs as followings. In view of the fact that a poly A chain is attached to the 3′ terminus of mRNA, a polynucleotide having a poly T structure which was immobilized on the surface of latex beads was used to trap the mRNA, and then the mRNA was washed and eluted with spine column (Oligotex-dT30<Super>mRNA Purification Kit, Takara). Reverse transcription of the mRNA was conducted with a reverse transcriptase (Super Script II Reverse Transcriptase; catalogue No. 18064-014, GibcoBRL) using fluorescence-labeled nucleotides to give cDNAs that were introduced with Cy3-dUTP or Cy5-dUTP during the reverse transcription.
The labeled cDNAs were dissolved in TE buffer (10mM Tris-HCl/1 mM EDTA, pH8.0), and the solution was dropped on the DNA chip containing the whole genes of yeast (DNA Chip Research Inc. Japan) so that the cDNAs were hybridized on the DNA chip at 65° C. for over 12 hours. The fluoresces intensity of the DNA chip was read with a scanner, and the ratio relative to the fluorescence intensity resulting from the absence of chemical substance was estimated as the following, which is shown in Tables 1 to 9: […]

O=[N+]([O-])c1cc[n+]([O-])c2ccccc12 [(5), 4-nitroquinolin-N-oxide]
level of expressed mRNA in the presence/in the absence of chemical substance (yeast gene YNL025C): 0.7 | The level of expressed mRNA in the presence of chemical substance/The level of expressed mRNA in the absence of chemical substance (yeast gene YNL037C): 1.7 | The level of expressed mRNA in the presence of chemical substance/The level of expressed mRNA in the absence of chemical substance (yeast gene YNL045W): 1.1 | The level of expressed mRNA in the presence of chemical substance/The level of expressed mRNA in the absence of chemical substance (yeast gene YNL104C): 0.8 | The level of expressed mRNA in the presence of chemical substance/The level of expressed mRNA in the absence of chemical substance (yeast gene YNL106C): 0.8 | The level of expressed mRNA in the presence of chemical substance/The level of expressed mRNA in the absence of chemical substance (yeast gene YNL169C): 0.7 | level of expressed mRNA in the presence/in the absence of chemical substance (yeast gene YNL192W): 0.9 | The level of expressed mRNA in the presence of chemical substance/The level of expressed mRNA in the absence of chemical substance (yeast gene YNL231C): 2.1 | The level of expressed mRNA in the presence of chemical substance/The level of expressed mRNA in the absence of chemical substance (yeast gene YNL322C): 1.4 | The level of expressed mRNA in the presence of chemical substance/The level of expressed mRNA in the absence of chemical substance (yeast gene YNL331C): 1.6 | The level of expressed mRNA in the presence of chemical substance/The level of expressed mRNA in the absence of chemical substance (yeast gene YNL332W): 1.6 | The level of expressed mRNA in the presence of chemical substance/The level of expressed mRNA in the absence of chemical substance (yeast gene YNR002C): 1.2 | The level of expressed mRNA in the presence of chemical substance/The level of expressed mRNA in the absence of chemical substance (yeast gene YNR019W): 0.8 | The level of expressed mRNA in the presence of chemical substance/The level of expressed mRNA in the absence of chemical substance (yeast gene YNR033W): 1.3 | The level of expressed mRNA in the presence of chemical substance/The level of expressed mRNA in the absence of chemical substance (yeast gene YNR059W): 1.4 | The level of expressed mRNA in the presence of chemical substance/The level of expressed mRNA in the absence of chemical substance (yeast gene YOL058W): 1.2 | level of expressed mRNA in the presence/in the absence of chemical substance (yeast gene YOL086C): 1.9 | level of expressed mRNA in the presence/in the absence of chemical substance (yeast gene YOL108C): 2.1 | level of expressed mRNA in the presence/in the absence of chemical substance (yeast gene YOL116W): 1.7 | The level of expressed mRNA in the presence of chemical substance/The level of expressed mRNA in the absence of chemical substance (yeast gene YOL126C): 0.7 | The level of expressed mRNA in the presence of chemical substance/The level of expressed mRNA in the absence of chemical substance (yeast gene YOL153C): 1.2 | level of expressed mRNA in the presence/in the absence of chemical substance (yeast gene YOL156W): 1.2 | The level of expressed mRNA in the presence of chemical substance/The level of expressed mRNA in the absence of chemical substance (yeast gene YOL165C): 0.9 | level of expressed mRNA in the presence/in the absence of chemical substance (yeast gene YOR002W): 1.1 | level of expressed mRNA in the presence/in the absence of chemical substance (yeast gene YOR085W): 1.0 | The level of expressed mRNA in the presence of chemical substance/The level of expressed mRNA in the absence of chemical substance (yeast gene YOR099W): 1.5 | level of expressed mRNA in the presence/in the absence of chemical substance (yeast gene YOR103C): 1.5 | level of expressed mRNA in the presence/in the absence of chemical substance (yeast gene YOR108W): 1.1 | level of expressed mRNA in the presence/in the absence of chemical substance (yeast gene YOR128C): 1.1 | The level of expressed mRNA in the presence of chemical substance/The level of expressed mRNA in the absence of chemical substance (yeast gene YOR130C): 1.8 | level of expressed mRNA in the presence/in the absence of chemical substance (yeast gene YOR142W): 1.4 | level of expressed mRNA in the presence/in the absence of chemical substance (yeast gene YOR176W): 1.0 | level of expressed mRNA in the presence/in the absence of chemical substance (yeast gene YOR178C): 1.0 | level of expressed mRNA in the presence/in the absence of chemical substance (yeast gene YOR251C): 0.8 | The level of expressed mRNA in the presence of chemical substance/The level of expressed mRNA in the absence of chemical substance (yeast gene YOR336W): 1.3 | The level of expressed mRNA in the presence of chemical substance/The level of expressed mRNA in the absence of chemical substance (yeast gene YOR347C): 0.7 | level of expressed mRNA in the presence/in the absence of chemical substance (yeast gene YOR348C): 0.9 | The level of expressed mRNA in the presence of chemical substance/The level of expressed mRNA in the absence of chemical substance (yeast gene YPL017C): 1.3 | level of expressed mRNA in the presence/in the absence of chemical substance (yeast gene YPL028W): 1.0 | level of expressed mRNA in the presence/in the absence of chemical substance (yeast gene YPL057C): 1.9 | level of expressed mRNA in the presence/in the absence of chemical substance (yeast gene YPL135W): 1.6 | level of expressed mRNA in the presence/in the absence of chemical substance (yeast gene YPL148C): 1.1 | The level of expressed mRNA in the presence of chemical substance/The level of expressed mRNA in the absence of chemical substance (yeast gene YPR026W): 0.8 | level of expressed mRNA in the presence/in the absence of chemical substance (yeast gene YPR113W): 2.0 | level of expressed mRNA in the presence/in the absence of chemical substance (yeast gene YPR165W): 1.5 | The level of expressed mRNA in the presence of chemical substance/The level of expressed mRNA in the absence of chemical substance (yeast gene YPR167C): 1.4 | level of expressed mRNA in the presence/in the absence of chemical substance (yeast gene YPR183W): 0.9
